Measured values as given in US20220144752A1, “WATER-SOLUBLE NAPHTHOQUINONE DERIVATIVE COMPOSITION AND METHOD FOR PRODUCING SAME, WATER-SOLUBLE COMPOSITION FOR CONTROLLING HARMFUL ALGAE, METHOD FOR CONTROLLING LARGE-SCALE HARMFUL ALGAE, AND AUTOMATION SYSTEM FOR AI-MONITORING, REMOVING, AND PREVENTING LARGE-SCALE HARMFUL ALGAE” (priority 2019, published 2022).
Where a name gives a salt, the structure may show the parent alone.

Tests used:
dolichospermum = assay: Algal effect experiment (algal activity by cell counting); format: cell-based, dolichospermum circinale; details: concentration of 1 μM or more
Experimental: (§1) The harmful algae algal effect at various inoculation concentrations of the compounds according to an example of the present disclosure was measured. To this end, freshwater harmful algae as treated group include blue-green algae, cyanobacteria microcystis aeruginosa, dolichospermum circinale, aphanizomenon sp., and pseudoanabaena sp., diatoms, stephanodiscus hantzschii, and synedra sp., and green algae, scenedesmus sp., and seawater harmful algae includes trichodesmium sp., alexandrium tamarens, cochlodinium polykrikoides, prorocentrum minimum, and heterosigma akashiwo which are blue-green algae, and pseudo-nitzschia pungens fungens which is diatoms. […]
(§2) Reviewing the details of the experiment, in the case of freshwater species, 5 mL of each culture line was prepared so that the cell density was 5.0×10^3-9.0×10^4 cells/mL, and in the case of seawater species, was prepared so that the cell density was 1.0×10^2-1.0×10^4 cells/mL. […] Counting of the number of cells was performed through an SR-chamber or a hemocytometer under an upright or inverted microscope, and by counting the number of cells after 24 hours, 48 hours, and 72 hours, the reduction ratio of cells compared to before treatment, that is, algal activity (%) was calculated using the following [Equation 1]. […]
(§3) Based on the above [Formula 1], the algal activity of the compound was expressed as 60% or less, 60 to 80%, 80% or more. […]

microcystis = assay: as above; format: cell-based, microcystis aeruginosa; details: concentration of 1 μM or more
Experimental: as §1, §2, §3

[1] = Biodegradability in on-site stream water (UHPLC-DAD); format: physicochemical; details: Jungnangcheon stream water, 6.5 μM input, 20° C.
Experimental: An experiment was performed to evaluate the biodegradability in the water system of the compound of [Chemical Formula 1] according to the example of the present disclosure. First, on-site water from the Jungnangcheon stream in Seoul was collected and sprayed so that the concentration of the substance was 6.5 μM, and then acclimatized to a constant temperature condition of 20° C. The experimental volume was 350 mL, and samples were taken at intervals of 1-3 days, and 5 mL was taken per one time. This sample was filtered with a GF/F filter and stored frozen, and then melted at room temperature for analysis, filtered again with a 0.45 μm nylon filter, and then proceeded under the following analysis conditions. • Equipment: Agilent 1290 Infinity (UHPLC-DAD) • Column: Eclipse Puls-[…] (4.6 mm*100 mm*3.5 μm) • Column temperature: 40° C. • Mobile phase: Isocratic=>A: 0.1% phosphoric acid in D.W, B: ACN=70:30 • Analysis time: 7 min • Flow rate: 1.0 mL/min • Detector: DAD Detector (measurement waveform: 260 nm) • Injection volume: 1 μL

Synedra = assay: Algal effect experiment (algal activity by cell counting); format: cell-based, synedra sp.; details: 1 μM, second day; cell growth observed again afterwards
Experimental: as §1, §2, §3

[2] = Solubility in organic solvents; format: physicochemical
From the text: Therefore, diethyl ether (Et2O) is recommended for washing.

alexandrium tamarence = assay: Algal effect experiment (algal activity by cell counting); format: cell-based, alexandrium tamarens; details: concentration of 1 μM or more
Experimental: as §1, §2, §3

green algae = assay: as above; format: cell-based; details: 1, 2 and 6 μM, up to 72 hours
Experimental: (§4) The harmful algae algal effect at various inoculation concentrations of the compounds according to an example of the present disclosure was measured. To this end, freshwater harmful algae as treated group include blue-green algae, cyanobacteria microcystis aeruginosa, dolichospermum circinale, aphanizomenon sp., and pseudoanabaena sp., diatoms, stephanodiscus hantzschii, and synedra sp., and green algae, scenedesmus sp., and seawater harmful algae includes trichodesmium sp., alexandrium tamarens, cochlodinium polykrikoides, prorocentrum minimum, and heterosigma akashiwo which are blue-green algae, and pseudo-nitzschia pungens fungens which is diatoms. The culture conditions are shown in [Table 1] below.
(§5) Reviewing the details of the experiment, in the case of freshwater species, 5 mL of each culture line was prepared so that the cell density was 5.0×10^3-9.0×10^4 cells/mL, and in the case of seawater species, was prepared so that the cell density was 1.0×10^2-1.0×10^4 cells/mL. After preparing each culture, the compounds specified as [Chemical Formula 1] prepared according to Examples were inoculated at various concentrations, and are treated so that the final concentrations were 1, 2, and 6 μM, respectively. Then, the compositions were cultured under the culture conditions of [Table 1], and cultured under continuous light conditions and observed for 72 hours. Counting of the number of cells was performed through an SR-chamber or a hemocytometer under an upright or inverted microscope, and by counting the number of cells after 24 hours, 48 hours, and 72 hours, the reduction ratio of cells compared to before treatment, that is, algal activity (%) was calculated using the following [Equation 1].
(§6) Algal activity (%)=(1−Tt/Ct)×100 [Equation 1]
(§7) In this case, in [Equation 1], T represents the density of cells after treating the compound, C represents the density of cells not treating the compound, and t represents the culture time.
(§8) Based on the above [Formula 1], the algal activity of the compound was expressed as 60% or less, 60 to 80%, 80% or more. When the algal activity reached 80% within 48 hours at any compound concentration, it was determined that there was an effect at a concentration higher than that and the high concentration experiment was stopped.

heterosigma akashiwo = assay: as above; format: cell-based; details: concentration of 2 μM or more
Experimental: as §4, §5, §6, §7, §8

diatoms = assay: as above; format: cell-based; details: 1, 2 and 6 μM, up to 72 hours
Experimental: as §4, §5, §6, §7, §8

[3] = system: cochlodinium polykrikoides; assay: as above; format: cell-based; details: concentration of 1 μM or more
Experimental: as §4, §5, §6, §7, §8

[4] = system: luminescent bacteria (vibrio fischeri); assay: Ecotoxicity test, relative luminescence of luminescent bacteria; format: cell-based; details: for relative luminescence of the luminescent bacteria: supernatant of microcystis aeruginosa culture treated at 1 μM
Experimental: In order to investigate the effect of the compound according to an example of the present disclosure, that is, a composition according to [Chemical Formula 1] on the ecosystem, biotoxicity evaluation indicator organisms such as luminescent bacteria (vibrio fischeri) and daphnia (Daphnia magna) was used to evaluate the ecotoxicity.
First, in the case of the luminescent bacteria, an experiment was conducted according to the water pollution process test method, and as a sample for ecotoxicity evaluation, the compound specified in Example 1 was added to the blue-green algae, microcystis aeruginosa (10,488 cells/mL) at a concentration of 1 μM, and then, the supernatant was taken after 24 hours, 48 hours, and 72 hours and the luminescent bacteria were injected. Thereafter, the relative luminescence of the treated group compared to the control group was measured to confirm the luminescence reduction effect, and thus, the toxicity of each sample was evaluated.

aphanizomenon = assay: Algal effect experiment (algal activity by cell counting); format: cell-based, aphanizomenon sp.; details: concentration of 2 μM or more
Experimental: as §1, §2, §3

akashiwo sanguinea = assay: as above; format: cell-based; details: concentration of 6 μM or more
Scenedesmus = assay: as above; format: cell-based, scenedesmus sp.; details: 1, 2 and 6 μM, up to 72 hours
Experimental: as §1, §2, §3

CCN(CC)CCNC1=CC(=O)c2ccccc2C1=O [Chemical Formula 1, 2-((2-(diethylamino)ethyl)amino)naphthalene-1,4-dione HCl]
algal effect (killed) (dolichospermum): ≥ 90%
algal effect (killed) (microcystis): ≥ 90%
concentration of the substance relative to the initial input concentration ([1]; 7th day): 70%
concentration of the substance ([1]; until the first 2 days): maintained at the input concentration level
algal effect (Synedra): 70%
solubility ([2]; 1,4-dioxane): slightly dissolved
solubility ([2]; dimethyl sulfoxide (DMSO)): well dissolved
solubility ([2]; ethanol (EtOH)): slightly dissolved
algal effect (alexandrium tamarence): more than 90%
algal effect (green algae): insignificant
algal effect (heterosigma akashiwo): more than 90%
algal effect (diatoms): insignificant
algal effect [3]: more than 90%
relative luminance versus control group ([4]; sample added at 1 μM): did not differ from that of the control group
relative luminescence of the luminescent bacteria ([4]; after 24 hours): 100%
relative luminescence of the luminescent bacteria ([4]; after 48 hours): 100%
relative luminescence of the luminescent bacteria ([4]; after 72 hours): 100%
algae effect (aphanizomenon): ≥ 80%
algal effect (akashiwo sanguinea): more than 80%
algal effect (Scenedesmus): hardly observed
